Holding throughout (format): functional
Experiment [1] concerns Mycobacterium tuberculosis. Nature of the experiment: Antitubercular activity against Mycobacterium tuberculosis H37Rv.
Experiment [2] deals with Mycobacterium tuberculosis. The experiment in a line: Antimycobacterial activity against Mycobacterium tuberculosis H37Rv ATCC 27294 at < 0.1 ug/mL by microplate alamar blue assay.
The subject of experiment [3] is Mycobacterium tuberculosis. Nature of the experiment: Antimycobacterial activity against Mycobacterium tuberculosis H37Rv after 5 days by microplate alamar blue assay. The settings on record: 120 h. A general note: The colour change of resazurin is a common sign of viable cells or microbes.
Experiment [4] deals with Mycobacterium tuberculosis. Nature of the experiment: Antimycobacterial activity against Mycobacterium tuberculosis H37Rv ATCC 27294 measured after 5 to 8 days.
Experiment [5] concerns Mycobacterium tuberculosis. Nature of the experiment: Antimycobacterial activity against Mycobacterium tuberculosis H37Rv by NCCLS method.
For experiment [6], the system named is Mycobacterium tuberculosis. Nature of the experiment: Growth inhibition of Mycobacterium tuberculosis H37Rv ATCC 27294 measured after 5 to 8 days.
Experiment [7] deals with Mycobacterium tuberculosis. The experiment in a line: Antimycobacterial activity against Mycobacterium tuberculosis H37Rv after 10 to 12 days by serial dilution method.
Experiment [8] relates to Mycobacterium tuberculosis. The experiment in a line: Antimycobacterial activity against Bovin sensitive Mycobacterium tuberculosis measured after six weeks.
Experiment [9] deals with Mycobacterium tuberculosis. The experiment in a line: Antimycobacterial activity against human sensitive Mycobacterium tuberculosis measured after six weeks.
The subject of experiment [10] is Mycobacterium avium. Nature of the experiment: Antimycobacterial activity against Mycobacterium avium 330/88 measured after 14 to 21 days by micromethod.
The subject of experiment [11] is Mycobacterium tuberculosis. Nature of the experiment: Antimycobacterial activity against Mycobacterium tuberculosis 331/88 after 14 to 21 days by micromethod.
The test system of experiment [12] is Mycobacterium tuberculosis. The experiment in a line: Antitubercular activity against Mycobacterium tuberculosis H37Rv after 10 days by tube dilution method. As to conditions: 240 h.
Experiment [13] relates to Mycobacterium tuberculosis. The experiment in a line: Potency index, ratio of pyrazinamide MIC to compound MIC for Mycobacterium tuberculosis H37Rv.
Experiment [14] has as its system Mycobacterium tuberculosis. The experiment in a line: Antimycobacterial activity against Mycobacterium tuberculosis Erdman ATCC 35801 by broth dilution method. (Broth dilution looks for growth in wells or tubes with falling amounts of substance.)
The test system of experiment [15] is Mycobacterium tuberculosis. Nature of the experiment: Potency index, ratio of isoniazid MIC to compound MIC for Mycobacterium tuberculosis clinical isolate 303.
Experiment [16] deals with Mycobacterium tuberculosis. Nature of the experiment: Antimycobacterial activity against Mycobacterium tuberculosis infected in C57BL/6 mouse assessed as reduction in colony forming units per lung at 100 mg/kg administered via gavage for 2 days measured last post dose.
Experiment [17] has as its system Mycobacterium tuberculosis. The experiment in a line: Antimycobacterial activity against Mycobacterium tuberculosis clinical isolate 303 by broth dilution method.
The subject of experiment [18] is Mycobacterium tuberculosis. The experiment in a line: Antimycobacterial activity against Mycobacterium tuberculosis clinical isolate 1889 by broth dilution method.
For experiment [19], the system named is Mycobacterium tuberculosis. Nature of the experiment: Antimycobacterial activity against Mycobacterium tuberculosis clinical isolate 35829 by broth dilution method.
The test system of experiment [20] is Mycobacterium tuberculosis. Nature of the experiment: Potency index, ratio of isoniazid MIC to compound MIC for Mycobacterium tuberculosis clinical isolate 1889.
Experiment [21] relates to Mycobacterium tuberculosis. Nature of the experiment: Potency index, ratio of isoniazid MIC to compound MIC for Mycobacterium tuberculosis clinical isolate 35829.

≈ marks a conversion by molar mass, not a printed value. A value given as a limit tells only on which side of the number the result lay.

Broadly, the MIC is the lowest concentration found to suppress growth. High values mean a less susceptible organism, low ones a more susceptible organism. `O=C(NN1C(=O)C(Cl)C1c1cc2cc(Br)ccc2nc1Cl)c1ccncc1` (stereo not drawn) returned an MIC in experiment [1] of 12.5 µg/mL.

Take `C[C@]12CC/C(=N\NC(=O)c3ccncc3)C[C@@H]1CC[C@@H]1[C@@H]2CC[C@]2(C)/C(=N/NC(=O)c3ccncc3)CC[C@@H]12`: in experiment [2], the “inhibition (INH)” value was greater than 95%.

Regarding `CO[C@H]1/C=C/O[C@@]2(C)Oc3c(C)c(O)c4c(O)c(c(/C=N/N5CCN(C)CC5)c(O)c4c3C2=O)NC(=O)/C(C)=C\C=C\[C@H](C)[C@H](O)[C@@H](C)[C@@H](O)[C@@H](C)[C@H](OC(C)=O)[C@@H]1C` [RIFAMPIN], the MIC worked out at 1 µg/mL (≈ 1.22 µM) in experiment [3], 0.25 µg/mL (≈ 0.304 µM) in [4] and 0.1 µg/mL (≈ 0.122 µM) in experiment [5]. The “growth inhibition (GI)” value in experiment [6] came out at 86%.

Turning to `C=C1C[C@]23CC[C@@H]4[C@](C)(CCC[C@@]4(C)C(=O)O[C@@H]4O[C@H](CO)[C@@H](O)[C@H](O)[C@H]4O)[C@H]2CC[C@]1(O[C@@H]1O[C@H](CO)[C@@H](O)[C@H](O)[C@H]1O[C@@H]1O[C@H](CO)[C@@H](O)[C@H](O)[C@H]1O)C3`, the MIC in experiment [7] amounted to 7.5 µg/mL (≈ 9.32 µM).

Compound `CCn1cc(C(=O)O)c(=O)c2cc(F)c(N3CCN(CN4C(=O)/C(=N\NC(=O)c5ccncc5)c5ccccc54)CC3)cc21` had an MIC in experiment [4] of less than 6.25 µg/mL. Further, the “growth inhibition (GI)” value in experiment [6] came out at 100%.

As for `C[C@]12CC[C@H]3[C@@](CC[C@@H]4[C@]3(C)CCC[C@@]4(C)C(=O)O)(C/C1=N/NC(=O)c1ccncc1)C2`, in [7], the MIC was in the range of 10 to 20 µg/mL (≈ 22.9 to 45.7 µM).

In the case of `C=CCN1C(=O)/C(=N\NC(=O)c2ccncc2)c2ccccc21`, the minimal inhibitory concentration (MIC) in experiment [8] and in [9] was 2.7 to 3.5 µg/mL (≈ 8.81 to 11.4 µM) in each case.

For `C=C1C[C@]23CC[C@@H]4[C@](C)(CCC[C@@]4(C)C(=O)NNc4cccnc4)[C@H]2CC[C@]1(O[C@@H]1O[C@H](COC(C)=O)[C@@H](OC(C)=O)[C@H](OC(C)=O)[C@H]1O[C@@H]1O[C@H](COC(C)=O)[C@@H](OC(C)=O)[C@H](OC(C)=O)[C@H]1O)C3`, the lowest concentration to inhibit growth in experiment [7] (MIC) was 10 µg/mL (≈ 10.1 µM).

`O=C(CNNC(=O)c1ccncc1)COc1ccc(/C=C2\SC(=O)NC2=O)cc1` gave an MIC in [1] of 50 to 100 µg/mL.

As for `COc1nc2ccc(Br)cc2cc1C1C(Cl)C(=O)N1NC(=O)c1ccncc1` (stereo not drawn), in [1], the MIC lay in the range of 3.12 to 6.25 µg/mL.

With `CCCCCCCCc1ccc(NC(=O)NNC(=O)c2ccncc2)cc1`, the MIC in experiment [10] and in [11] was 1 to 2 µM (≈ 0.368 to 0.737 µg/mL) each time.

`C/C(=N\NC(=O)c1ccncc1)c1ccc(N)cc1` registered an MIC in experiment [1] of 0.23 µM.

`CCn1cc(C(=O)O)c(=O)c2cc(F)c(N3CCN(CN4C(=O)/C(=N\NC(=O)c5ccncc5)c5cc(Cl)ccc54)CC3)cc21`: the minimum inhibitory concentration (MIC) in experiment [4] was in the range of 6.25 to 12.5 µg/mL (≈ 9.89 to 19.8 µM). The “growth inhibition (GI)” value in [6] is 99%.

As for `COc1nc2ccccc2cc1C1C(Cl)C(=O)N1NC(=O)c1ccncc1` (stereo not drawn), the MIC in [1] was in the range of 3.12 to 6.25 µg/mL.

In turn, `O=C(NNc1nc(Cl)nc(NC(=O)c2cnccn2)n1)c1ccncc1` yielded an MIC in experiment [12] of 20 µg/mL (≈ 53.8 µM).

On to `Cc1c(C(=O)NNC(=O)c2ccncc2)nn(-c2ccc(Cl)cc2Cl)c1-c1ccc(Cl)cc1`, for which it took 12.5 µg/mL (≈ 25 µM) to inhibit growth in experiment [5] (MIC). Besides, the Ratio in [13] stood at 2.

As to `NC(=O)c1cnccn1` [PYRAZINAMIDE], the MIC was determined as 20 µg/mL (≈ 162 µM) in [7] and 50 µg/mL (≈ 406 µM) in experiment [5].

Consider `Cc1ccc(C)n1NC(=O)c1ccccc1`, for which the MIC in [14] is 3.2 µg/mL (≈ 14.9 µM); in [17] it was 4 to 8 µg/mL (≈ 18.7 to 37.3 µM); in [18] it was 4 to 8 µg/mL (≈ 18.7 to 37.3 µM); in experiment [19] it was 4 to 8 µg/mL (≈ 18.7 to 37.3 µM). Further, the Ratio in experiment [15], in experiment [20] and in experiment [21] was 2 in each case. The Activity in experiment [16] is on record as 1.5 log10CFU.

In experiment [1], `O=C(NN1C(=O)C(Cl)C1c1cc2cc(Cl)ccc2nc1Cl)c1ccncc1` (stereo not drawn) showed an MIC of 12.5 µg/mL.

For `O=C(NNc1nc(Cl)nc(NNC(=O)c2ccncc2)n1)c1ccncc1`, in [12], the lowest concentration to inhibit growth (MIC) was 20 µg/mL (≈ 51.8 µM).

Turning to `CC[C@@H](CO)NCCN[C@@H](CC)CO` [ETHAMBUTOL], 3.25 µg/mL (≈ 15.9 µM) was the least that counted as inhibitory in [5] (MIC).

Compound `CCC(CO)Nc1nc(Cl)nc(NNC(=O)c2ccncc2)n1` (stereo not drawn) returned an MIC in experiment [12] of 20 µg/mL (≈ 59.2 µM).

(Values after ChEMBL document CHEMBL4052616, “Isoniazid derivatives and their anti-tubercular activity” (Eur J Med Chem, 2017).)
